In brackets after ≈: the same amount, converted by molar mass. Where two headings read alike, the source gives them in different places.
Experiments:
physchem = experiment: physchem
From the text: As to 6-(1,2,6,7-tetraoxaspiro[7.11]nonadecy-4-yl)hexane-1-ole (N251), 5-(1,2,6,7-tetraoxaspiro[7.11]nonadecy-4-yl)pentane-1-carboxylic acid (N251-1), succinic acid mono-[6-(1,2,6,7-tetraoxaspiro[7.11]nonadecy-4-yl)hexyl]ester (N251-2), all obtained in Example 9, and 1,2,6,7-tetraoxaspiro[7.11]nonadecane (N89), artemisinin, artesunate (trade name: Guilin No. 2, Pharmaceutical Factory, Guangxi, China) as comparative examples, solubility to 5% of sodium bicarbonate water and dimethylsulfoxide (DMSO) was measured.

[1] = test system: P. falciparum FCR-3 strain (ATCC30932); experiment: Growth inhibition screening test of P. falciparum (FCR-3 strain); format: cell-based; conditions: read-out: EC50 (M) P. falciparum FCR-3
Protocol: (§1) A filter-sterilized RPMI1640 medium (pH 7.4) was added with human serum such that the serum made up 10% of the medium, and used in the experiment. P. falciparum were cultured in O2 at a concentration of 5%, CO2 at a concentration of 5% and N2 at a concentration of 90%, at a temperature of 36.5° C. Hematocrit value (ratio of volume of erythrocytes in erythrocyte suspension) was adjusted to be 5%, and initial infection rate of P. falciparum at the beginning of culture was adjusted to be 0.1%. A 24-well plate was used for culture and a medium was replaced everyday, and cultures were transferred at infection rate of 4%. A thin-layer smear was constructed and subjected to Giemsa staining or Diff-Qick staining, and followed by measurement under a microscope (oil immersion, 1000×), and then infection rate of P. falciparum was calculated according to the following formula. Infection rate of P. falciparum (%)={(number of infected erythrocytes)/(total number of erythrocytes)}×100 […]
(§2) Cultured erythrocytes infected with P. falciparum were gathered by centrifugation and washed with a medium containing serum, then noninfected erythrocytes were added, and initial infection rate was adjusted to be 0.3%. Hematocrit value in this case was 3%. […] These samples were dissolved into sterilized water, dimethylformamide (DMF) or dimethylsulfoxide (DMSO), and sample solutions at prescribed concentration were prepared. 5 to 10 μl each of the sample solutions was added to a 24-well culture plate. For each sample, 2 to 3 experiments were conducted. In addition, for control, sterilized water, DMF or DMSO was added by 10 μl/well. […] The culture plate was put into a CO2—O2—N2 (5%, 5%, 90%) incubator and culture was conducted for 72 hours, then a thin-layer smear was constructed for each well, Giemsa staining or Diff-Qick staining was conducted, followed by measurement under a microscope (oil immersion, 1000×), and then infection rates of P. falciparum in a group supplemented with a reagent and in controls were calculated. The growth rate was calculated according to the following formula based on the infection rate of P. falciparum as calculated above. Growth rate (%)={([b]−[a])/([c]−[a])}×100 […]
(§3) a: initial infection rate b: infection rate when sample solution added c: infection rate of a control
(§4) EC50 is a value expressed by molar concentration: when growth rate of control wherein sample solution is not added to a medium of P. falciparum is defined as 100%, EC50 indicates a concentration of a sample wherein infection rate of P. falciparum in control is inhibited by 50% due to the addition of sample solution.

[2] = test system: chloroquine-resistant malaria parasite of P. falciparum K-1 strain; experiment: Growth inhibition screening test of chloroquine-resistant P. falciparum (K-1 strain); format: cell-based; conditions: read-out: EC50 (M) Chloroquine-resistant P. falciparum K1
Protocol: as §1, §2, §3, §4

[3] = test system: mouse breast cancer-derived FM3A cells (F28-7 strain); experiment: Growth inhibition test of mouse FM3A cells; format: cell-based; conditions: read-out: IC50 (M) Cancer cells of mice FM3A
Protocol: An F28-7 strain, a wild-type strain of mouse breast cancer-derived FM3A cells, was used. Immobilized fetal bovine serum was added to an ES medium such that the serum made up 2% of the medium, and culture was conducted in CO2 at a concentration of 5%, and at 37° C. […] Cells which had been precultured and entered to logarithmic growth phase were diluted to be 5×10^4 cells/ml in the medium. A sample prepared at the time of the measurement of antimalarial activity of P. falciparum was used. […] For each test sample, 2 to 3 experiments were conducted, and wells added with 10 μl each of sterilized water, DMF and DMSO were tested at the same time as controls. Next, a prepared suspension of cultured cells was added, by 990 to 995 μl each, and when medium and the like were added, the final concentration of test samples became 1×10^−4 to 1×10^−6M. By pipetting gently, these substances were uniformly suspended in media.
Based on the counted number of cells, growth rate was calculated by the following formula. Growth rate (%)={([C]−[A])/([B]−[A])}×100
A: the number of cells at the beginning
B: the number of cells in a control after 48 hours
C: the number of cells 48 hours after sample addition
Based on the calculated growth rate, IC50, cell growth inhibitory concentration, was calculated, and cytotoxicity of samples was evaluated as cell growth inhibitory activity.

[4] = test system: P. falciparum versus mouse FM3A cells; experiment: Assessment of drug efficacy (chemotherapeutic coefficient, selective toxicity against P. falciparum); format: cell-based; conditions: IC50 for mouse FM3A cells ÷ EC50 for P. falciparum (values fit FCR-3)
Protocol: Evaluation of antimalarial activity of samples was conducted on the basis of chemotherapeutic coefficient used as an index of selective toxicity against P. falciparum. Chemotherapeutic coefficient was calculated by the following formula as a ratio of EC50 value of each sample used for P. falciparum to IC50 value of each sample used for mouse FM3A cells, and drug efficacy was assessed based on the calculated values.
Chemotherapeutic coefficient=(IC50 value of the sample for mouse […] cells)÷(EC50 value of the sample for P. falciparum)

[5] = test system: murine malaria parasites (P. berghei NK65 strain); experiment: Parasite suppression test using mice infected with murine malaria parasite (4-day suppressive test); format: in vivo; conditions: for ED50 / cure of infected mice / ED90: mice infected with P. berghei NK65; for ED50 / ED90: once a day for 4 days, orally or intraperitoneally in olive oil; for ED50: 50% of parasites suppressed; for cure of infected mice: N251 and N89: with 50 mg/kg; for ED90: 90% of parasites suppressed
[6] = Plasmodium falciparum, FCR-3 strain, 72 hours culture, infection rate by Giemsa or Diff-Qick staining
[7] = Plasmodium falciparum, K1 chloroquine-resistant strain, 72 hours culture
[8] = Mus musculus, FM3A cells, 48 hours culture, cell count, cytotoxicity
[9] = Plasmodium berghei, 96 h, read-out: ED50

C1CCCCCC2(CCCCC1)OOCCCOO2 [N89, 1,2,6,7-tetraoxaspiro[7.11]nonadecane]
solubility to DMSO (physchem): insoluble
EC50 [1, 6]: 2.5e-08 M
EC50 [2, 7]: 2.6e-08 M
IC50 [3, 8]: 8.2e-06 M
IC50/EC50 Chemotherapeutic coefficient [4]: 328
ED50 [5, 9]: 12 mg/kg
cure of infected mice [5]: All cured
ED90 [5]: 20 mg/kg

CCN(CC)CCCC(C)Nc1ccnc2cc(Cl)ccc12 (centres unmarked) [Chloroquine, chloroquine]
EC50 ([1]; Plasmodium falciparum, 72 h): 1.8e-08 M
EC50 ([2]; Plasmodium falciparum, K1, 72 h): 1.3e-07 M
IC50 ([3]; Mus musculus, FM3A, 48 h): 3.2e-05 M

OCCCCCCC1COOC2(CCCCCCCCCCC2)OOC1 [N251, 6-(1,2,6,7-tetraoxaspiro[7.11]nonadecy-4-yl)hexane-1-ole]
solubility to DMSO (physchem): insoluble
EC50 ([1]; FCR-3 strain, 72 hours culture, infection rate by Giemsa or Diff-Qick staining): 2.3e-08 M
EC50 ([2]; K1 chloroquine-resistant strain, 72 hours culture): 2e-08 M
IC50 ([3]; FM3A cells, 48 hours culture, cell count, cytotoxicity): 8e-06 M
IC50/EC50 Chemotherapeutic coefficient [4]: 348
ED50 (mg/kg) on N89 basis ([5]; ED50 of N251 converted to N89 basis (molar comparison)): [<7 on N89 basis] mg/kg
ED90 (mg/kg) on N89 basis ([5]; ED90 of N251 converted to N89 basis (molar comparison)): [13 on N89 basis] mg/kg
cure of infected mice [5]: All cured
ED50 [5]: <10 mg/kg
ED90 [5]: 18 mg/kg

O=C(O)CCC(=O)OCCCCCCC1COOC2(CCCCCCCCCCC2)OOC1 [N251-2, succinic acid mono-[6-(1,2,6,7-tetraoxaspiro[7.11]nonadecy-4-yl)hexyl]ester]
solubility to 5% of sodium bicarbonate water (physchem): 100 mg/mL

O=C(O)CCCCCC1COOC2(CCCCCCCCCCC2)OOC1 [N251-1, 5-(1,2,6,7-tetraoxaspiro[7.11]nonadecy-4-yl)pentane-1-carboxylic acid]
solubility to 5% of sodium bicarbonate water (physchem; 5% of sodium bicarbonate water): 50 mg/mL

C[C@H]1[C@H](OC(=O)CCC(=O)O)O[C@@H]2O[C@@]3(C)CC[C@H]4[C@H](C)CC[C@@H]1[C@@]24OO3 [artesunate]
solubility (physchem; aqueous buffer): 100 mg/mL (≈ 260 mM)

C[C@@H]1CC[C@H]2[C@@H](C)C(=O)O[C@@H]3O[C@@]4(C)CC[C@@H]1[C@]32OO4 [Artemisinin, artemisinin]
solubility to DMSO (physchem): insoluble
EC50 [1, 6]: 1e-08 M
EC50 [2, 7]: 1.3e-08 M
IC50 [3, 8]: 1e-05 M
IC50/EC50 Chemotherapeutic coefficient [4]: 1000
ED50 [5, 9]: 6 mg/kg
cure of infected mice [5]: Not cured
ED90 [5]: 10.3 mg/kg
